Measured values published in patent publication US20130158098A1, “Alkenyl Substituted Cycloaliphatic Compounds as Chemical Inducers of Proximity” (priority 2010, published 2013).

Tests used:
[1] = subchronic toxicity studies; cited from earlier work
[2] = ABA stability in fetal bovine serum (luciferase biofunctional readout); type: in vitro ADME; conditions: 37° C.
Description: FIG. 3C provides the results of a stability test of ABA in cell culture conditions. CHO cells were pre-transfected with the activation and reporter DNA constructs for 24 hours. 100 μM ABA was then added to the culture and cells were assayed for luciferase activity after 10 hours. During the 10-hour incubation, the cell culture media were replaced with media containing freshly added ABA every 1, 2.5, 5 hour or no replacement. FIG. 4A illustrates the results of an experiment in which human serum pre-incubated ABA was used to induce luciferase transcription. ABA was incubated with pure non-heat inactivated human serum at 37° C. for indicated time period. ABA containing serum was then added to the CHO cell culture to a final 100 μM ABA concentration for 25 hours and cells were assayed for luciferase activity. The cells were pre-transfected with the activation and reporter DNA constructs for 24 hours. […]
In plants, ABA had been reported to be unstable due to active enzymatic degradation (Cutler, A. J. and Krochko, J. E. (1999) Formation and breakdown of ABA. Trends Plant Sci. 4, 472-478). […] The activity of residual ABA in the serum was measured by its ability to induce the transcriptional activation of the luciferase reporter in cells expressing the ABA-activator cassette. […] Using this assay, the bioavailability in mice was evaluated. […]

[3] = biological target: T1, VP16-PYLcs and Gal4 DBD-ABIcs (Arabidopsis thaliana, UniProt Q8VZS8); experiment: ABA-induced GFP reporter activation in various cell lines; type: cell-based; conditions: 100 μM, 24 h; CHO, HEK 293, Cos7, NIH3T3, TC1 cells
T1 construct: HA (from the reverse primer); expressed in transfected cells; host or cells: CHO; also HEK 293/293T, NIH3T3, COS7, B35, Jurkat, E14, TC1, MEF
T1 sequence (Q8VZS8 33-209): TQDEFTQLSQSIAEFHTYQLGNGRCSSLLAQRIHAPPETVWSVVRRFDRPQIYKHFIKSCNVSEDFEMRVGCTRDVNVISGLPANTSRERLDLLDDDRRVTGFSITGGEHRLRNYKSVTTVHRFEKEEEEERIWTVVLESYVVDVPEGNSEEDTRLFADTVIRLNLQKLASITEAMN
T1 sequence (P49597 126-423 partner): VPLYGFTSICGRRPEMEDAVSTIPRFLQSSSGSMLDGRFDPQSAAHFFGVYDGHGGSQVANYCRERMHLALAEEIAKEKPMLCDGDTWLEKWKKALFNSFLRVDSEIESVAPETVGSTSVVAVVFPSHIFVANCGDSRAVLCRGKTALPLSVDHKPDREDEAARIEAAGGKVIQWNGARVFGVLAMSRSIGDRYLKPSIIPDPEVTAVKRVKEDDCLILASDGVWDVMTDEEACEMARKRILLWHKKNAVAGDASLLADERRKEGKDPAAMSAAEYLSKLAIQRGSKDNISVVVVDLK
Excerpt: Activation construct: A fragment of PYL1 (one of PYR/PYL/RCAR members) (aa 33-209, also referred to as “PYLcs”) was linked to a transcriptional activation domain and a fragment of ABI1 (one of PP2C members) (aa 126-423, SEQ ID NO:2, also referred to as “ABIcs”) was linked to a DNA binding domain using recombinant DNA methods. In the constructs illustrated in FIG. 1 and FIG. 2, PYL1 (“PYLcs”) is fused to the VP16 activation domain and ABI1 (“ABIcs”) is fused to the Gal4 DNA binding domain. These two regulatory elements are linked by IRES and driven by the SV40 early promoter. Reporter constructs: Full length Luciferase is driven by Fos gene minimal promoter with 5 copies of Gal4 DNA binding sites immediately upstream of Fos promoter. GFP reporter is driven by IL2 minimal promoter with 5×Gal4 DNA binding sites upstream.
ABA regulated transcriptional activation is applicable to various cell lines from different origins besides CHO cells, as shown in FIG. 7. […] 100 μM of ABA was then added to the cell culture and cells were observed under fluorescence microscope for GFP expression after another 24 h.

CC1=CC(=O)CC(C)(C)C1(O)/C=C/C(C)=C/C(=O)O (stereo not shown) [ABA, abscisic acid]
no observable adverse effect level (NOAEL) [1]: 20,000 mg/kg per day
reduction in ability to induce transcription of luciferase ([2]; pure fetal bovine serum, up to 48 hours): no significant reduction
stability in fetal calf serum ([2]; pure heat inactivated fetal bovine serum): stable
GFP reporter expression [3]: only expressed after ABA was added
